Laboratory results reported in ChEMBL document CHEMBL1201862, “PubChem BioAssay data set” (2004).
Activity calls are given as the source filed them.

Experiments:
[1] = target: T1, Sphingosine 1-phosphate receptor 4 (Homo sapiens, UniProt O95977); assay: Late-stage fluorescence dose response cell-based assay to identify agonists of the Sphingosine 1-Phosphate Receptor 4 (S1P4): purchased compounds EC50. [Related pubchem assays (depositor defined):AID1509, AID1523, AID1563, AID1686, AID1701, AID1801]; type: functional
T1 sequence (O95977 whole entry): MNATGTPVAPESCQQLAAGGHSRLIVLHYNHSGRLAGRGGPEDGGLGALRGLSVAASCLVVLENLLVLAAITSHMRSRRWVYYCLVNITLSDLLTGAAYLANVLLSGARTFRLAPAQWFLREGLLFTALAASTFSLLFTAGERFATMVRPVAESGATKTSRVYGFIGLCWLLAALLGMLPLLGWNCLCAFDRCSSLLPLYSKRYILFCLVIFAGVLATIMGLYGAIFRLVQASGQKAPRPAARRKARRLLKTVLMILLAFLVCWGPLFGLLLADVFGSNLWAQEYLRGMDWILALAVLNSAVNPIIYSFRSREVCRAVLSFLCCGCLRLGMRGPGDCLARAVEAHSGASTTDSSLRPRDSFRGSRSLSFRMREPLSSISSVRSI

Coagulation factor XII [2] = target: T2, Coagulation factor XII (Homo sapiens, UniProt P00748); type: functional;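 also: activated factor XIIa alpha cleaving a fluorogenic AMC peptide substrate; inhibitor potency from loss of enzyme activity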
T2 sequence (P00748 whole entry): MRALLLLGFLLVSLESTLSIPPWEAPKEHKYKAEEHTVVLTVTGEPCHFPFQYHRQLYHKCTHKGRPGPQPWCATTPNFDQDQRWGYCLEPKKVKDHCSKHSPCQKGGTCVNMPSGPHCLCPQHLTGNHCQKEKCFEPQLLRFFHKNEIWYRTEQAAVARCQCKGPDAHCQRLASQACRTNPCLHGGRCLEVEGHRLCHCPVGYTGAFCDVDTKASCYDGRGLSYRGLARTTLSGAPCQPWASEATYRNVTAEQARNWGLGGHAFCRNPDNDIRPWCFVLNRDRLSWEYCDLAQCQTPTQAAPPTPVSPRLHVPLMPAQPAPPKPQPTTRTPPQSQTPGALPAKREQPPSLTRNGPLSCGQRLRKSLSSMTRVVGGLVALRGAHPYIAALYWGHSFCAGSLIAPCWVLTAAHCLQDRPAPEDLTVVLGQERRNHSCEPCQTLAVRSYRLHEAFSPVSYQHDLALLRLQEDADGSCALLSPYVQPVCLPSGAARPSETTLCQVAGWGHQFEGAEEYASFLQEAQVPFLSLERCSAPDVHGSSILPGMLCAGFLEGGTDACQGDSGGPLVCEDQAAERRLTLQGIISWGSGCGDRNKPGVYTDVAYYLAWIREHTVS

Coagulation factor XII [3] = target: T2, Coagulation factor XII; assay: FXIIa inhibitor potency, concentration-response, biochemical (AID 716); type: functional
[4] = system: Streptococcus sp. 'group A'; assay: growth inhibition of control SK(-) GAS strain, dose response, counter-screen for streptokinase expression inhibitor project, luminescence, kanamycin, BacTiterGlo, confirmation (AID 1900); type: functional, organism-based
Beta-galactosidase [5] = target: T3, Beta-galactosidase (Escherichia coli, UniProt Q8VNN2); assay: PubChem AID 485352; type: functional
Streptokinase A = target: T4, Streptokinase A (Streptococcus pyogenes serotype M1, UniProt P10520); assay: S. pyogenes streptokinase expression inhibitors, potency, dose response, plasminogen activation absorbance, OD405 (AID 1914); type: functional, Streptococcus pyogenes M1 GAS;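 also: secreted streptokinase activity via plasminogen activation per viability signal from cell pellet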
T4 sequence (P10520 whole entry): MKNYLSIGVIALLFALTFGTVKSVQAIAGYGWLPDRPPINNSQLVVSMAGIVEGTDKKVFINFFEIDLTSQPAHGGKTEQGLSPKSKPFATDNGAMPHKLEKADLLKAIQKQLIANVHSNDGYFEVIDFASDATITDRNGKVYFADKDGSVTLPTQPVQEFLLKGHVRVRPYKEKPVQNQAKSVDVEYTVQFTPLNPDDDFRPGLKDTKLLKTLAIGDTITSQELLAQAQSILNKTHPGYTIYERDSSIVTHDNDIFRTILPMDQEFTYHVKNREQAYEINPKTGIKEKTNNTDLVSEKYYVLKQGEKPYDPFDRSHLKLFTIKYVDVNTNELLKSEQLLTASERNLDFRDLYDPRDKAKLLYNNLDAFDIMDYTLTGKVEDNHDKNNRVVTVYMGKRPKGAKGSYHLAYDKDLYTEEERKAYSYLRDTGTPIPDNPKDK

[6] = target: T5, Type-1 angiotensin II receptor (Homo sapiens, UniProt P30556); assay: AT1 receptor antagonists, dose response, selectivity assay for APJ receptor antagonist project, cell-based, uHTS hits (AID 463214); type: functional;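 also: antagonist potency against angiotensin II stimulated AT1 response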
T5 sequence (P30556 whole entry): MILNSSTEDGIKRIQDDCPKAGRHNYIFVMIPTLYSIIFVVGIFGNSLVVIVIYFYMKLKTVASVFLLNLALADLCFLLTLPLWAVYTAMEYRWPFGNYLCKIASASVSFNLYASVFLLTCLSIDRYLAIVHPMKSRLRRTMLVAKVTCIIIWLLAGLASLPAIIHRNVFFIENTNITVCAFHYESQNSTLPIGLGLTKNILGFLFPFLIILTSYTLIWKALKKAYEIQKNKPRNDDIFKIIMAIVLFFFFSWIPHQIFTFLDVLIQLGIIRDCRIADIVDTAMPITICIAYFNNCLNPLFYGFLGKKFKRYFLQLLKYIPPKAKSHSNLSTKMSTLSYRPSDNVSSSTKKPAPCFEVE

[7] = target: T6, Kappa-type opioid receptor (Homo sapiens, UniProt P41145); type: functional
Beta-galactosidase [8] = target: T3, Beta-galactosidase; type: functional
[9] = target: T6, Kappa-type opioid receptor; type: functional; remark: listed apart in the source
Streptococcus = assay: Group A Streptococcus viability loss, dose response, counter-screen for streptokinase expression inhibitor project, luminescence, BacTiterGlo (AID 1915); type: functional, organism-based;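 also: potency for reduction of bacterial viability or growth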
[10] = THP-1 cell cytotoxicity, dose response, cytotoxicity control for non-replicating M. tuberculosis project (AID 489025); type: functional
[11] = HepG2 cell cytotoxicity, dose response, cytotoxicity control for non-replicating M. tuberculosis project (AID 489018); type: functional; conditions: Mycobacterium tuberculosis
[12] = Vero E6 cell cytotoxicity, dose response, cytotoxicity control for non-replicating M. tuberculosis project, secondary assay (AID 492998); type: functional, VeroE6; conditions: Vero C1008
cells = type: functional
INS1 = assay: beta cell apoptosis inhibitors, cytokine rescue, dose response, luminescence, retest (AID 449756); type: functional, cell-based; conditions: Rattus norvegicus;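 also: cell death triggered by IL-1 beta plus TNF-alpha plus IFN-gamma mixture; protective hits raise ATP signal compared with cytokine alone wells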
[13] = A549 cell cytotoxicity, dose response, cytotoxicity control, plate reader, cherry-pick, antagonist series (AID 743412); type: functional, cell-based
[14] = HepG2 cell cytotoxicity, dose response, cytotoxicity control, plate reader, cherry-pick, antagonist series (AID 743416); type: functional, cell-based
[15] = LGR2 antagonists, dose response, cell-based, HEK293, CRE-luciferase reporter, cherry pick, set 2 (AID 743343); type: functional;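 also: transfected cells were stimulated with diluted bursicon conditioned medium after compound addition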
[16] = MC4R antagonists, dose response, counter-screen for LGR2 antagonist project, cell-based, plate reader, cherry pick (AID 743444); type: functional;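 also: transfected HEK 293 cells stimulated with alpha-MSH peptide; potency of inhibitors of the alpha-MSH evoked signal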
[17] = HEK293 cell cytotoxicity, dose response, cytotoxicity control, plate reader, cherry-picked samples (AID 743446); type: functional, cell-based
[18] = target: T7, Short transient receptor potential channel 4 (Mus musculus, UniProt Q9QUQ5); assay: TRPC4 positive allosteric modulators, dose response, cell-based, HEK293 TRPC4/mu-opioid, Fluo-4 calcium, EC20 DAMGO (AID 434941); type: functional
T7 sequence (Q9QUQ5 whole entry): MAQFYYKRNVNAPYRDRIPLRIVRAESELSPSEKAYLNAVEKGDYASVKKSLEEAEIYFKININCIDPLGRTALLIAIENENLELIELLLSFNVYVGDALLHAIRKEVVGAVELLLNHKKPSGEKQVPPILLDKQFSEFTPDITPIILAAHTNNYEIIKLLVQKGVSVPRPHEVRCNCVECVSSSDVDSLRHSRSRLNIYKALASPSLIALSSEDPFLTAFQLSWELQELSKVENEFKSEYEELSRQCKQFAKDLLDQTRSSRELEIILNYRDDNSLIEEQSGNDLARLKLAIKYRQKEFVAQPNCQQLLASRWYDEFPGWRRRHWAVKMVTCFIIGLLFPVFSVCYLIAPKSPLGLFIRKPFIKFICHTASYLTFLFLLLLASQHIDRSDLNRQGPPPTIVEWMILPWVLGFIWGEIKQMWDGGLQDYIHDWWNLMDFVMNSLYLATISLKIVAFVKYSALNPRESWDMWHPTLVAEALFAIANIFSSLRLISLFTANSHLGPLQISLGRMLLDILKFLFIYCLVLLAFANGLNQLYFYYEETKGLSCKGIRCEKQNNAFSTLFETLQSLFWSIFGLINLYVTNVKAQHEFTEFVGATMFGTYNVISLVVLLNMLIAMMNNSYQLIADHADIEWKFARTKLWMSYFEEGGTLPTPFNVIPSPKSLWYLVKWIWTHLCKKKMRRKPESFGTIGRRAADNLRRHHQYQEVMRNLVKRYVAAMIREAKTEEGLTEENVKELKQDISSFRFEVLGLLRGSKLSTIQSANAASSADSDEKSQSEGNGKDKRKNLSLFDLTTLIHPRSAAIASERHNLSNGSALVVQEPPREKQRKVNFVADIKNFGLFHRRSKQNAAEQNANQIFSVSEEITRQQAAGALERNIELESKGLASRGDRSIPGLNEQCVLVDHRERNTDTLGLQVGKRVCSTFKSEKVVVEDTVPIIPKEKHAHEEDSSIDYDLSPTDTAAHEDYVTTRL

Cytochrome P450 2D6 = Cytochrome P450 2D6 (Homo sapiens, UniProt P10635);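 also: CYP2D6 member of a cytochrome P450 panel assay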
Cytochrome P450 2C9 = Cytochrome P450 2C9 (Homo sapiens, UniProt P11712)
Sequence of Cytochrome P450 2C9 (P11712 whole entry): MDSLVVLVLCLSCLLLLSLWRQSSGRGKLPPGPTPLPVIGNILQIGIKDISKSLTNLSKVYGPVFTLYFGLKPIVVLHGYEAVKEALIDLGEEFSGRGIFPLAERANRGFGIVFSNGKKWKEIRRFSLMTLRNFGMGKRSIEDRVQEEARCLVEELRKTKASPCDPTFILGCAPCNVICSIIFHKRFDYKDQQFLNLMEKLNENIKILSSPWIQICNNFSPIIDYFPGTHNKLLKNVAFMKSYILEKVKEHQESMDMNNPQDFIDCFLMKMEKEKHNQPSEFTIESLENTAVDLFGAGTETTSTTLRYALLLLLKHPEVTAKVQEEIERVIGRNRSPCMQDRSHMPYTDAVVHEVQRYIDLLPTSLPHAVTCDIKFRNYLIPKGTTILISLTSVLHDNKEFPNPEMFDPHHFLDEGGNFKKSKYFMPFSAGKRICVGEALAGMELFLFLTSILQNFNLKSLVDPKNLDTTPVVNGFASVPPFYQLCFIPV

T6 sequence (P41145 whole entry): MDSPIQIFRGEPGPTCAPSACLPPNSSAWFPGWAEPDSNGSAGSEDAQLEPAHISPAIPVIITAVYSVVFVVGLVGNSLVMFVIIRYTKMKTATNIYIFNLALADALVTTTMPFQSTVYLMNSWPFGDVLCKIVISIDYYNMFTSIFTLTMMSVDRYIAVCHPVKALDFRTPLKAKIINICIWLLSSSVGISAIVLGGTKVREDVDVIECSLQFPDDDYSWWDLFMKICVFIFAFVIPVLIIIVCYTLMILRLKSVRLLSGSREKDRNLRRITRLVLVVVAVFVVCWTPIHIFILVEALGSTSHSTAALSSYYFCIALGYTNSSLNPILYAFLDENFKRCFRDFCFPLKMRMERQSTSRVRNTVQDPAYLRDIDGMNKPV
T3 sequence (Q8VNN2 whole entry): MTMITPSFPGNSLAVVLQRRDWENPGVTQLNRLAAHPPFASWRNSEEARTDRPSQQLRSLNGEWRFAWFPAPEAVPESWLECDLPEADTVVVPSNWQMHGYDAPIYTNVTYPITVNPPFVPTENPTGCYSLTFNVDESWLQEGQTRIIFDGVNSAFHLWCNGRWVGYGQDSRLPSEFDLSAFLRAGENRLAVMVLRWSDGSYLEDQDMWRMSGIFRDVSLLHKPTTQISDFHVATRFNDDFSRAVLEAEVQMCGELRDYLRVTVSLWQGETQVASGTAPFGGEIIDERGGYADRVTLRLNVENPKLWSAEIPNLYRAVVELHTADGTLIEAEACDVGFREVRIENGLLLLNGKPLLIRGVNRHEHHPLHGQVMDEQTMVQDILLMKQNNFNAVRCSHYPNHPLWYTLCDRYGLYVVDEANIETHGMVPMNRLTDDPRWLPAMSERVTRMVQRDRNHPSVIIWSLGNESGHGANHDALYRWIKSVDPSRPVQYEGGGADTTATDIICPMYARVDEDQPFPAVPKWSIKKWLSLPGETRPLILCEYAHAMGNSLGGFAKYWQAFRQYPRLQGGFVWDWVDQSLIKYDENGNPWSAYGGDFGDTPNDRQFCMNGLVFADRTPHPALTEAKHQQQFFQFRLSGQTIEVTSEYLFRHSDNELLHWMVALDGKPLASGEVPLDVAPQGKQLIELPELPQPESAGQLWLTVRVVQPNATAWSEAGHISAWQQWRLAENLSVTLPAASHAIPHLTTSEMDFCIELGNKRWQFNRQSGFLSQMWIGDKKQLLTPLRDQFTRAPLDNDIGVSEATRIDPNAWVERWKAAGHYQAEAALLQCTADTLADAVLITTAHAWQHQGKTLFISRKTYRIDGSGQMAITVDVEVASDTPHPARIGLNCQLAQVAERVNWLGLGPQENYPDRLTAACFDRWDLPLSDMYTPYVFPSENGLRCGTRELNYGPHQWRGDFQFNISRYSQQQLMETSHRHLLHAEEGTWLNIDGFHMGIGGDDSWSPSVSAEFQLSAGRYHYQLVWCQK
Sequence of Cytochrome P450 2D6 (P10635 whole entry): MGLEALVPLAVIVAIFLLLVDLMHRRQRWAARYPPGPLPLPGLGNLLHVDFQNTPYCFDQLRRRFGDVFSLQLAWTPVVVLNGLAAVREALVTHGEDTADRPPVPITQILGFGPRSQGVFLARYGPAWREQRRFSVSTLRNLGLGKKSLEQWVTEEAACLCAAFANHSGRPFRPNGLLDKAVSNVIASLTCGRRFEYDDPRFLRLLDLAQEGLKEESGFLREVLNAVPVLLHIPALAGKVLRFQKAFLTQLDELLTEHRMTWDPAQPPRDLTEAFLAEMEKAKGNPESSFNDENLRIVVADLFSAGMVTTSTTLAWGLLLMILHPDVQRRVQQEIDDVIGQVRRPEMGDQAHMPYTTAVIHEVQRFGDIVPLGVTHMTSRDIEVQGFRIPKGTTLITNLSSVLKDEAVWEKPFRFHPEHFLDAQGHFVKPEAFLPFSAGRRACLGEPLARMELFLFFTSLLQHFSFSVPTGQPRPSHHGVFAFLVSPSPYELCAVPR

Question: For `COc1ccc(OCCOc2ccc(C)nc2[N+](=O)[O-])cc1`, which EC50 [1] is on record?
Answer: > 50 µM (inactive)

Question: For `CC(=O)N1CCc2c(sc(NC(=O)C3CC3)c2-c2nc3ccccc3s2)C1`, which IC50 (Coagulation factor XII [2]) is on record?
Answer: 25.7 µM (active)

Question: For `CCOCCn1c(SCCCc2ccccc2)nc2c1c(=O)[nH]c(=O)n2C`, which IC50 (Coagulation factor XII [3]) is on record?
Answer: > 50 µM (inactive)

Question: Which EC50 [1] does the source give for `Cc1nn(CC(C)C)c(Cl)c1C(=O)OC(C)C(=O)Nc1ccccc1` (stereo not given) here?
Answer: > 50 µM (inactive)

Question: With `O=C(Nc1nc2ccc(F)cc2s1)c1ccccn1` as the compound, how does the EC50 [4] read?
Answer: 2.5 µM (active)

Question: And the EC50 (Beta-galactosidase [5])?
Answer: > 40 µM (inactive)

Question: And the EC50 (Streptokinase A)?
Answer: > 150 µM (not active)

Question: And the IC50 [6]?
Answer: 3.96 µM (active)

Question: And the IC50 [7]?
Answer: 4.6 µM (active)

Question: What about the EC50 (Beta-galactosidase [8]) of the same compound?
Answer: > 31.5 µM (inactive)

Question: And the IC50 [9]?
Answer: > 32 µM

Question: What about the EC50 (Streptococcus) of the same compound?
Answer: 10.1 µM (active)

Question: And the CC50 [10]?
Answer: 0.982 µM (active)

Question: And the CC50 [11]?
Answer: > 5 µM (active)

Question: What about the CC50 [12] of the same compound?
Answer: 3.18 µM (active)

Question: And the IC50 (cells)?
Answer: < 0.1 µM (active)

Question: And the AC50 (INS1)?
Answer: 2.72 µM (active)

Question: And the AC50 [13]?
Answer: 3.57 µM (active)

Question: What about the AC50 [14] of the same compound?
Answer: 10 µM (active)

Question: What about the AC50 [15] of the same compound?
Answer: 1.21 µM (active)

Question: And the AC50 [16]?
Answer: 1.61 µM (active)

Question: What about the AC50 [17] of the same compound?
Answer: 8.2 µM (active)

Question: Which EC50 [18] does the source give for `COc1ccc2[nH]cc(CCN(C)C)c2c1` [MEBUFOTENIN] here?
Answer: 0.67 µM (active)

Question: And the AC50 (Cytochrome P450 2D6)?
Answer: 20 µM (inconclusive)

Question: And the AC50 (Cytochrome P450 2C9)?
Answer: inconclusive
